From patent publication US9181290B2, “Inhibition of biofilm formation by 1,2,3,4,6-penta-O-galloyl-D-glucopyranose” (CHANG GUNG UNIVERSITY, priority 2011, dated 2015)

Assays:
[1] = system: S. aureus SA113; assay: Scanning electron microscopy of cells on polycarbonate discs; format: cell-based, Staphylococcus aureus; details: 3.13 μM, 6 hrs
Protocol: S. aureus SA113 cells were grown on polycarbonate discs in the presence or absence of 3.13 μM β-PGG. After 6 hours incubation, the discs were washed three times with PBS to remove planktonic cells and then prepared for SEM examination as described elsewhere (Guo-Xian Wei et al. (2006), supra). The samples thus prepared were observed using a Hitachi S-5000 scanning electron microscope.

[2] = system: S. carnosus TM300; assay: Growth (A578) and biofilm (A595) in polystyrene plates; format: cell-based; details: 12.5 μM β-PGG, 6 hr
Protocol: In addition to the above S. aureus strains, S. epidermidis ATCC 35547 and S. epidermidis RP62A (ATCC 35984) were also studied for comparison.
(§1) An overnight bacterial culture was 200-fold diluted with TSBg, and a 200 μL aliquot of the diluted culture was seeded into each well of 96-well polystyrene microtiter plates and incubated at 37° C. for a designated period of time. Cell growth was determined by measuring the absorbance at 578 nm (A578) with a microtiter plate reader (SpectraMax 340, Molecular Devices). After washing with PBS twice to remove suspended cells, the wells were stained with 0.1% (w/v) crystal violet in 10% ethanol and then treated with 30% acetic acid in dH2O, followed by detecting the absorbance at 595 nm (A595) with the microtiter plate reader to quantify the amount of biofilm formed on polystyrene surface.

[3] = system: S. aureus SA113; assay: CFU counting of cells adhered to polycarbonate surface; format: cell-based, Staphylococcus aureus
Text: (§2) To count the number of viable cells, the removed suspended cells were suspended in PBS by pipetting, and the resultant cell suspension was sonicated and serially diluted and subsequently plated on TSBg agar plate for colony forming unit (CFU) counting according to a method described earlier (S. Schlag et al. (2007), J. Bacteriol., 189:7911-7919).
To quantify the amount of biofilm formed on polycarbonate surface, a 13-mm-diameter polycarbonate disc (Thermanox, Nalgene Nunc International, Rochester, N.Y., USA) was placed in a well of a 24-well microtiter plate, followed by the addition of 1 mL aliquot of the diluted bacterial culture. After incubation at 37° C. for a designated period of time, viable cells were washed off the surface of the polycarbonate disc with PBS and counted as described above, while the PBS-washed polycarbonate disc was subjected to crystal violet staining for biofilm quantification as described above.
In addition to biofilm formation, the number of cells attached to polystyrene surface and polycarbonate surface were also counted.

[4] = system: clinical strains SA289, SA44, SA435 and SA703; assay: Biofilm formation by four less sensitive clinical strains at 50 μM (data not shown); format: cell-based, Staphylococcus aureus; details: across the four clinical strains
Protocol: as §1

[5] = system: Acinetobacter baumannii; assay: Anti-biofilm activity (data not shown); format: cell-based
[6] = system: S. aureus SA113; assay: CFU counting of cells adhered to polystyrene surface; format: cell-based, Staphylococcus aureus
Text: as §2
In addition to biofilm formation, the number of cells attached to polystyrene surface and polycarbonate surface were also counted. Subsequent to the incubation of S. aureus SA113 cells with β-PGG (0 μM, 6.25 μM or 12.5 μM) for 20, 40 and 60 min, cells adhered to the polystyrene surface or polycarbonate surface were washed and suspended in PBS, followed by plating on TSBg agar for CFU counting. After incubation on polystyrene surface for 20, 40 and 60 min, the number of cells counted for the DMSO-treated control (i.e., 0 μM β-PGG) was 4.1×10^5, 6.4×10^5 and 7.8×10^5 CFU, respectively (FIG. 4, panel A, black bars).

[7] = system: PIA production by clinical isolates of S. aureus (SA13, SA288, SA44, SA 130); assay: Quantification of PIA in four clinical isolates; format: cell-based, Staphylococcus aureus; details: 12.5 μM and 25 μM, 6 hrs
Protocol: The amount of PIA was determined by chemiluminescence detection using horseradish peroxidase-conjugated streptavidin (Pierce) according to a method described elsewhere (S. Schlag et al. (2007), supra). Briefly, a tested bacterial strain prepared in TSBg broth was added with β-PGG at a designated concentration and then cultured in a 9 cm petri dish for 6 hrs. The bacterial cells grown in the petri dish were collected by scraping, followed by centrifugation, and the resultant cell pellets were redissolved by addition of 3 mL of 0.5 M EDTA (pH 8.0) for every gram (wet weight) of cell pellet, followed by boiling at 100° C. for 10 min. After centrifugation at 10,000 g for 30 min, the resultant supernatant was 100-fold diluted. An 80 μL aliquot of the diluted supernatant was incubated with 20 μL of proteinase K (10 mg/mL, in dH2O) at 37° C. for 2 hrs, followed by blotting onto a PVDF membrane (Millipore) using a 96-well dot-blot apparatus. […] Thereafter, the membrane was detected by autoradiography using X-ray film, and the intensity of each spot formed on the X-ray film was quantified using a densitometer (LAS-3000, Fujifilm). The relative PIA amount produced by the tested bacterial strain was determined based on the detected intensity, with the amount of PIA from bacterial cells without PGG treatment being set as 100%. […]

[8] = system: polysaccharide intercellular adhesion (PIA) production by S. aureus SA113; assay: Quantification of PIA by chemiluminescence (WGA-biotin/HRP-streptavidin); format: cell-based, Staphylococcus aureus; details: 6 hrs; for decrease of the amount of PIA formed on the cell surface: densitometer, untreated = 100%
Protocol: The amount of PIA was determined by chemiluminescence detection using horseradish peroxidase-conjugated streptavidin (Pierce) according to a method described elsewhere (S. Schlag et al. (2007), supra). Briefly, a tested bacterial strain prepared in TSBg broth was added with β-PGG at a designated concentration and then cultured in a 9 cm petri dish for 6 hrs. The bacterial cells grown in the petri dish were collected by scraping, followed by centrifugation, and the resultant cell pellets were redissolved by addition of 3 mL of 0.5 M EDTA (pH 8.0) for every gram (wet weight) of cell pellet, followed by boiling at 100° C. for 10 min. After centrifugation at 10,000 g for 30 min, the resultant supernatant was 100-fold diluted. An 80 μL aliquot of the diluted supernatant was incubated with 20 μL of proteinase K (10 mg/mL, in dH2O) at 37° C. for 2 hrs, followed by blotting onto a PVDF membrane (Millipore) using a 96-well dot-blot apparatus. After blotting, the membrane was dried and soaked in a first blocking buffer (containing 3% bovine serum albumin (BSA) and 0.05% Tween-20 in PBS), followed by incubation at room temperature for 1 hr in the first blocking buffer containing 0.8 μg/mL wheat germ agglutinin conjugated with biotin (WGA-biotin, Sigma-Aldrich). After sequentially washing with the first blocking buffer and a second blocking buffer (containing 1% BSA and 0.05% Tween-20 in PBS), the membrane was incubated with horseradish peroxidase-conjugated streptavidin (Pierce) for 30 min, and washed 4 times with the first blocking buffer, followed by incubation with 1 mL of a substrate reagent (Luminol/Enhancer solution and Stable Peroxide solution, Pierce) at room temperature for 5 min. Thereafter, the membrane was detected by autoradiography using X-ray film, and the intensity of each spot formed on the X-ray film was quantified using a densitometer (LAS-3000, Fujifilm). The relative PIA amount produced by the tested bacterial strain was determined based on the detected intensity, with the amount of PIA from bacterial cells without PGG treatment being set as 100%.
To detect PIA in culture medium, the medium was concentrated using an Amicon-Ultra4 centrifuge filter (Millipore, Billerica, Mass., USA) prior to extraction.
Similar experiments were performed using four clinical isolates of S. aureus, namely MSSA strains SA13 and SA288, and MRSA strains SA44 and SA 130.

[9] = system: S aureus SA113; assay: Bacterial attachment onto glass coverslips (data not shown); format: cell-based, Staphylococcus aureus

## O=C(OC[C@H]1O[C@@H](OC(=O)c2cc(O)c(O)c(O)c2)[C@H](OC(=O)c2cc(O)c(O)c(O)c2)[C@@H](OC(=O)c2cc(O)c(O)c(O)c2)[C@@H]1OC(=O)c1cc(O)c(O)c(O)c1)c1cc(O)c(O)c(O)c1 [β-PGG, 1,2,3,4,6-penta-O-galloyl-β-D-glucopyranose]
[1]
  web structure (likely PIA) on polycarbonate surface by SEM: caused the web structure to disappear
[2]; 0 μM: 0.12 ± 0.01, non-biofilm negative control strain
  Biofilm (A595): 0.10 ± 0.01
[2]; 0 μM: 0.69 ± 0.02
  Growth (A578): 0.70 ± 0.01
[3]; 6.25 μM, 20 min, DMSO control 7×10^5
  number of cells attached to polycarbonate surface: 2.9×10^5 CFU
[3]; 6.25 μM, 40 min, DMSO control 1.1×10^6
  number of cells attached to polycarbonate surface: 2.3×10^5 CFU
[3]; 6.25 μM, 60 min, DMSO control 2×10^6
  number of cells attached to polycarbonate surface: 3.5×10^5 CFU
[3]; 12.5 μM, 20 min, DMSO control 7×10^5
  number of cells attached to polycarbonate surface: 1.0×10^5 CFU
[3]; 12.5 μM, 40 min, DMSO control 1.1×10^6
  number of cells attached to polycarbonate surface: 8×10^4 CFU
[3]; 12.5 μM, 60 min, DMSO control 2×10^6
  number of cells attached to polycarbonate surface: 5×10^4 CFU
[4]
  reduction of biofilm formation: 83-97%
[5]
  anti-biofilm activity: potent to mild anti-biofilm activity
[6]; 6.25 μM, 20 min, DMSO control 4.1×10^5
  number of cells attached to polystyrene surface: 2.1×10^5 CFU
[6]; 6.25 μM, 40 min, DMSO control 6.4×10^5
  number of cells attached to polystyrene surface: 2.05×10^5 CFU
[6]; 6.25 μM, 60 min, DMSO control 7.8×10^5
  number of cells attached to polystyrene surface: 1.8×10^5 CFU
[6]; 12.5 μM, 20 min, DMSO control 4.1×10^5
  number of cells attached to polystyrene surface: 3.7×10^4 CFU
[6]; 12.5 μM, 40 min, DMSO control 6.4×10^5
  number of cells attached to polystyrene surface: 2.3×10^4 CFU
[6]; 12.5 μM, 60 min, DMSO control 7.8×10^5
  number of cells attached to polystyrene surface: 1.7×10^4 CFU
[7]
  PIA production by four clinical isolates: inhibited PIA production
[8]; 3.13 μM
  decrease of the amount of PIA formed on the cell surface: 7%
[8]; 12.5 μM
  decrease of the amount of PIA formed on the cell surface: 58%
[8]; 50 μM
  decrease of the amount of PIA formed on the cell surface: 87%
[8]; 3.13, 12.5 and 50 μM
  PIA production (extracted from bacterial cells): PIA production was inhibited
  PIA released into the culture medium: decreased after β-PGG treatment in a dose-dependent manner
[9]
  bacterial attachment onto glass coverslips: inhibited bacterial attachment onto glass coverslips
